Assay results published in patent publication US9388162B2, “Substituted morphinans and the use thereof” (Purdue Pharma L.P., priority 2012, dated 2016).

What was measured:
[1] = molecular target: T1, μ-opioid receptors (Homo sapiens (Human), UniProt P35372); experiment: μ-opioid receptor [35S]GTPγS functional assay, U-2 OS cells; type: biochemical; details: μ GTP; for EC50: read-out: Activity Response μ EC50 (nM) [mean ± SEM]; for Emax: relative to DAMGO, read-out: Activity Response μ Emax (%)
[2] = molecular target: T1, μ-opioid receptors; experiment: μ-opioid receptor [35S]GTPγS functional assay, HEK-293 cells; type: biochemical; details: μ GTP; for EC50: read-out: Activity Response μ EC50 (nM) [mean ± SEM]; for Emax: relative to DAMGO, read-out: Activity Response μ Emax (%)
Experimental: [^35S]GTPγS functional assays were conducted using freshly thawed μ-receptor membranes prepared from a cell line expressing recombinant μ opioid receptor in a HEK-293, CHO or U-2 OS cell background or purchased from a commercial source (Perkin Elmer, Shelton, Conn.; or DiscovRx, Fremont, Calif.). Assay reactions were prepared by sequentially adding the following reagents to binding buffer (100 mM NaCl, 10 mM MgCl2, 20 mM HEPES, pH 7.4) on ice (final concentrations indicated): membrane protein (0.026 mg/mL), saponin ([…]), GDP ([…]) and [^35S]GTPγS (0.20 nM; Perkin Elmer, Shelton, Conn.). The prepared membrane solution (190 μl/well) was transferred to 96-shallow well polypropylene plates containing 10 μl of 20× concentrated stock solutions of the agonist [D-Ala^2, N-methyl-Phe^4 Gly-ol^5]-enkephalin (DAMGO) prepared in dimethyl sulfoxide (DMSO). Plates were incubated for 30 min at about 25° C. with shaking. Reactions were terminated by rapid filtration onto 96-well Unifilter GF/B filter plates (Perkin Elmer, Shelton, Conn.) using a 96-well tissue harvester (Perkin Elmer, Shelton, Conn.) followed by three filtration washes with 200 μl of ice-cold wash buffer (10 mM NaH2PO4, 10 mM Na2HPO4, pH 7.4). Filter plates were subsequently dried at 50° C. for 2-3 hours. BetaScint scintillation cocktail (Perkin Elmer, Shelton, Conn.) was added (50 μl/well) and plates were counted using a Packard Top-Count for 1 min/well. Data were analyzed using the sigmoidal dose-response curve fitting functions in GraphPad PRISM v. 3.0, or an in-house function for non-linear, sigmoidal dose-response curve-fitting.
μ GTP EC50 is the concentration of a compound providing 50% of the maximal response for the compound at a μ-opioid receptor.
μ GTP Emax (%) is the maximal effect elicited by a compound relative to the effect elicited by DAMGO, a standard μ agonist. Generally, the μ GTP Emax (%) value measures the efficacy of a compound to treat or prevent pain or other Conditions.
(§1) The following tables provide results on the efficacy of binding and activity response of exemplified Compounds of the Invention at the μ- and κ-opioid receptors. In TABLE 3, binding affinity of certain Compounds of the Invention to the μ- and κ-opioid receptors was determined as described above. In TABLE 4, activity response of certain Compounds of the Invention to the μ- and κ-opioid receptors was determined as described above for functional assays using HEK-293 cells. In TABLE 5, activity response of certain Compounds of the Invention to the μ- and κ-opioid receptors was determined as described above using U-2 OS cells.

[3] = molecular target: T2, κ opioid receptor (Homo sapiens (Human), UniProt P41145); experiment: κ-opioid receptor [35S]GTPγS functional assay, U-2 OS cells; type: biochemical; details: κ GTP; for EC50: read-out: Activity Response κ EC50 (nM) [mean ± SEM]; for Emax: relative to U69,593, read-out: Activity Response κ Emax (%)
[4] = molecular target: T2, κ opioid receptor; experiment: κ-opioid receptor [35S]GTPγS functional assay, HEK-293 cells; type: biochemical; details: κ GTP; for EC50: read-out: Activity Response κ EC50 (nM) [mean ± SEM]; for Emax: relative to U69,593, read-out: Activity Response κ Emax (%)
Experimental: (§2) Membranes from HEK-293 cells, CHO or U-2 OS cells expressing the recombinant human kappa opioid receptor (κ) were prepared by lysing cells in ice cold hypotonic buffer (2.5 mM MgCl2, 50 mM HEPES, pH 7.4) (10 mL/10 cm dish) followed by homogenization with a tissue grinder/Teflon pestle. Membranes were collected by centrifugation at 30,000×g for 15 min at 4° C. and pellets were resuspended in hypotonic buffer to a final concentration of 1-3 mg/mL. Protein concentrations were determined using the BioRad protein assay reagent with bovine serum albumen as standard. Aliquots of κ receptor membranes were stored at −80° C.
Functional [^35S]GTPγS binding assays were conducted as follows. κ opioid receptor membrane solution was prepared by sequentially adding final concentrations of 0.026 μg/μl κ membrane protein (in-house), 10 μg/mL saponin, 3 μM GDP and 0.20 nM [^35S]GTPγS to binding buffer (100 mM NaCl, 10 mM MgCl2, 20 mM HEPES, pH 7.4) on ice. The prepared membrane solution (190 μl/well) was transferred to 96-shallow well polypropylene plates containing 10 μl of 20× concentrated stock solutions of agonist prepared in DMSO. Plates were incubated for 30 min at a temperature of about 25° C. with shaking. Reactions were terminated by rapid filtration onto 96-well Unifilter GF/B filter plates (Perkin Elmer, Shelton, Conn.) using a 96-well tissue harvester (Packard) and followed by three filtration washes with 200 μl ice-cold binding buffer (10 mM NaH2PO4, 10 mM Na2HPO4, pH 7.4). Filter plates were subsequently dried at 50° C. for 2-3 hours. Fifty μl/well scintillation cocktail (Perkin Elmer, Shelton, Conn.) was added and plates were counted in a Packard Top-Count for 1 min/well.
κ GTP EC50 is the concentration of a compound providing 50% of the maximal response for the compound at a κ receptor.
κ GTP Emax (%) is the maximal effect elicited by a compound relative to the effect elicited by U69,593.
as §1, with “In” for “The following tables provide results on the efficacy of binding and activity response of exemplified Compounds of the Invention at the μ- and κ-opioid receptors. In”

[5] = molecular target: recombinant human kappa opioid receptor (κ) (Homo sapiens (Human), UniProt P41145); experiment: κ-opioid receptor radioligand dose displacement binding assay ([3H]-U69,593); details: mean ± SEM, read-out: Binding Affinity Opioid Receptor Ki (nM) [mean ± SEM] κ
Experimental: as §2
Radioligand dose displacement assays used 0.4 nM [^3H]-U69,593 (GE Healthcare, Piscataway, N.J.; 40 Ci/mmole) with 15 μg membrane protein (recombinant κ opioid receptor expressed in HEK 293 cells; in-house prep) in a final volume of 200 μl binding buffer (5% DMSO, 50 mM Trizma base, pH 7.4). Non-specific binding was determined in the presence of 10 μM unlabeled naloxone or U69,593. All reactions were performed in 96-well polypropylene plates for 1 hour at a temperature of about 25° C. Binding reactions were terminated by rapid filtration onto 96-well Unifilter GF/C filter plates (Perkin Elmer, Shelton, Conn.) presoaked in 0.5% polyethylenimine (Sigma). Harvesting was performed using a 96-well tissue harvester (Perkin Elmer, Shelton, Conn.) followed by five filtration washes with 200 μl ice-cold binding buffer. Filter plates were subsequently dried at 50° C. for 1-2 hours. Fifty μl/well scintillation cocktail (Perkin Elmer, Shelton, Conn.) was added and plates were counted in a Packard Top-Count for 1 min/well.
as §1

SMILES | EC50 [1] [nM] | Emax [1] [%] | EC50 [2] [nM] | Emax [2] [%] | EC50 [3] [nM] | Emax [3] [%] | EC50 [4] [nM] | Emax [4] [%] | Ki [5] [nM]
CC(C)CC[C@H]1C[C@@]2(O)[C@H]3Cc4ccc(O)cc4[C@@]2(CCN3CC2CC2)CC1=O [Compound 64, (4bR,7S,8aS,9R)-11-(cyclopropylmethyl)-3,8a-dihydroxy-7-isopentyl-8,8a,9,10-tetrahydro-5H-9,4b-(epiminoethano)phenanthren-6(7H)-one] | > 200000 | 7.5 | > 200000 | 1 | 4.71 ± 0.12 | 87.3 ± 2.6 | 4.3 ± 1.55 | 33 ± 1.73 | 
C[C@H](NC(=O)C[C@H]1C[C@@]2(O)[C@H]3Cc4ccc(O)cc4[C@@]2(CCN3CC2CC2)CC1=O)C(=O)O [Compound 15, (S)-2-(2-((4bR,7R,8aS,9R)-11-(cyclopropylmethyl)-3,8a-dihydroxy-6-oxo-6,7,8,8a,9,10-hexahydro-5H-9,4b-(epiminoethano)phenanthren-7-yl)acetamido)propanoic acid] |  |  | 43.8 ± 14.7 | 36.2 ± 3.75 |  |  | 221 ± 59.4 | 36 ± 2 | 191 ± 45.8
COc1ccc2c(c1)[C@]13CCN(CC4CC4)[C@H](C2)[C@]1(O)CC(CC(=O)O)(CC(=O)O)C(=O)C3 [Compound 10, 2,2′-((4bR,8aS,9R)-11-(cyclopropylmethyl)-8a-hydroxy-3-methoxy-6-oxo-6,7,8,8a,9,10-hexahydro-5H-9,4b-(epiminoethano)phenanthrene-7,7-diyl)diacetic acid] |  |  | 14700 ± 1530 | 16 ± 2.65 |  |  |  |  | > 20000
CCOC(=O)C[C@H]1C[C@@]2(O)[C@H]3Cc4ccc(OC)cc4[C@@]2(CCN3CC2CC2)CC1=O [Compound 1, ethyl 2-((4bR,7R,8aS,9R)-11-(cyclopropylmethyl)-8a-hydroxy-3-methoxy-6-oxo-6,7,8,8a,9,10-hexahydro-5H-9,4b-(epiminoethano)phenanthren-7-yl)acetate] |  |  | 3400 ± 584 | 59.3 ± 3.38 |  |  | 5110 ± 1260 | 72 ± 3.21 | 408 ± 34.1
COc1ccc2c(c1)[C@]13CCN(CC4CC4)[C@H](C2)[C@]1(O)C[C@H](CC(=O)N[C@@H](C)C(=O)O)C(=O)C3 [Compound 13, (S)-2-(2-((4bR,7R,8aS,9R)-11-(cyclopropylmethyl)-8a-hydroxy-3-methoxy-6-oxo-6,7,8,8a,9,10-hexahydro-5H-9,4b-(epiminoethano)phenanthren-7-yl)acetamido)propanoic acid] |  |  | 4600 ± 471 | 66 ± 2.65 |  |  |  |  | > 20000
COc1ccc2c(c1)[C@]13CCN(CC4CC4)[C@H](C2)[C@]1(O)C[C@H](CC(=O)N[C@@H](CC(C)C)C(=O)O)C(=O)C3 [Compound 18, (S)-2-(2-((4bR,7R,8aS,9R)-11-(cyclopropylmethyl)-8a-hydroxy-3-methoxy-6-oxo-6,7,8,8a,9,10-hexahydro-5H-9,4b-(epiminoethano)phenanthren-7-yl)acetamido)-4-methylpentanoic acid] |  |  | 2750 ± 221 | 50 ± 1.53 |  |  |  |  | 15900
CCS(=O)(=O)N[C@H]1C[C@@]2(O)[C@H]3Cc4ccc(O)cc4[C@@]2(CCN3CC2CC2)CC1=O [Compound 42, N-((4bR,7S,8aS,9R)-11-(cyclopropylmethyl)-3,8a-dihydroxy-6-oxo-6,7,8,8a,9,10-hexahydro-5H-9,4b-(epiminoethano)phenanthren-7-yl)ethanesulfonamide] |  |  | > 200000 | 5.5 |  |  |  |  | 
CC(C)CNC(=O)C[C@H]1C[C@@]2(O)[C@H]3Cc4ccc(O)cc4[C@@]2(CCN3C)CC1=O [Compound 82, 2-((4bR,7R,8aS,9R)-3,8a-dihydroxy-11-methyl-6-oxo-6,7,8,8a,9,10-hexahydro-5H-9,4b-(epiminoethano)phenanthren-7-yl)-N-isobutylacetamide] |  |  | 2330 ± 200 | 67.8 ± 4.01 |  |  |  |  | 
COc1ccc2c(c1)[C@]13CCN(CC4CC4)[C@H](C2)[C@]1(O)C[C@H](CC(=O)N1CCC[C@H]1C(=O)O)C(=O)C3 [Compound 16, (S)-1-(2-((4bR,7R,8aS,9R)-11-(cyclopropylmethyl)-8a-hydroxy-3-methoxy-6-oxo-6,7,8,8a,9,10-hexahydro-5H-9,4b-(epiminoethano)phenanthren-7-yl)acetyl)pyrrolidine-2-carboxylic acid] |  |  | 6770 ± 1370 | 28.7 ± 1.86 |  |  |  |  | > 20000
O=C1C[C@]23CCN(CC4CC4)[C@H](Cc4ccc(O)cc42)[C@]3(O)C[C@@H]1CCO [Compound 54, (4bR,7S,8aS,9R)-11-(cyclopropylmethyl)-3,8a-dihydroxy-7-(2-hydroxyethyl)-8,8a,9,10-tetrahydro-5H-9,4b-(epiminoethano)phenanthren-6(7H)-one] | 1.81 ± 0.57 | 26.3 ± 2.33 | 14.2 ± 3.39 | 25 ± 2.04 | 4.82 ± 0.71 | 88.2 ± 2.53 | 5.02 ± 0.14 | 34.3 ± 0.67 | 
O=C(O)CC1(CC(=O)O)C[C@@]2(O)[C@H]3Cc4ccc(O)cc4[C@@]2(CCN3CC2CC2)CC1=O [Compound 12, 2,2′-((4bR,8aS,9R)-11-(cyclopropylmethyl)-3,8a-dihydroxy-6-oxo-6,7,8,8a,9,10-hexahydro-5H-9,4b-(epiminoethano)phenanthrene-7,7-diyl)diacetic acid] |  |  | > 200000 |  |  |  |  |  | 3410 ± 538
